# Assay: Solubility versus pH at ~22-24° C.
# Assay type: physicochemical
# Conditions: 23 °C
# From the text: However, carbidopa and LDEE, examples of two active materials in the composition of the present invention, have different chemical and physical properties and contrasting solubility characteristics especially in acid conditions, i.e., in the gastrointestinal tract (see Table 1).
# [1] = aqueous buffer, pH 5.0, ~22-24° C.
# [2] = simulated gastric fluid, pH 1.0, ~22-24° C.
SMILES,solubility [1] [µg/mL],solubility [2] [µg/mL]
"N[C@@H](Cc1ccc(O)c(O)c1)C(=O)O [Levodopa, levodopa]",4960,5380
"C[C@@](Cc1ccc(O)c(O)c1)(NN)C(=O)O [Carbidopa, carbidopa]",1660,21400

# — patent publication US20030147957A1, “Dual release formulation comprising levodopa ethyl ester and a decarboxylase inhibitor in immediate release layer with levodopa ethyl ester and a decarboxylase inhibitor in a controlled release core” (priority 2001, published 2003)
